Data set [1] concerns cardiac myocytes. As to the kind of experiment: Cell Death Detection ELISA (cytoplasmic mono- and oligo-nucleosomes). In kind it is cell-based, rat. The note with it: for mono- and oligo-nucleosomes in the cytoplasm (nuclear fragmentation): marker of apoptosis. How it is done:
Myocytes were transduced with an adenoviral vector encoding LacZ (Ad-LacZ) or Sir2α (Ad-Sir2α) with or without serum for 48 hours followed by Cell Death ELISA (FIG. 1A). Alternatively, myocytes were transduced Ad-LacZ or Ad-Sir2α with or without H2O2 (100 μM) for 48 hours followed by Cell Death ELISA (FIG. 1B). […] Mean OD value of control was designated as 1. Each column represents mean from 3 different culture preparations.
(§1) Subsequently, it was determined whether cardiac myocyte death by Sir2α inhibition was due to apoptosis. […] Similar results were obtained using TUNEL staining. To examine whether activation of caspase-3 was involved in myocyte death induced by NAM and TSA, the effect of DEVD-CHO, a cell permeable inhibitor of caspase-3, upon myocyte death was examined.
(§2) Cardiac-specific overexpression of Sir2α was subsequently examined. […] After 7 days, most myocytes were dead in a low-density culture condition. […] It has been shown that pyruvate increases, while lactate decreases, the cellular NAD^+/NADH ratio, thereby positively or negatively regulating the activity of endogenous Sir2α (Fulco, et al. (2003) Mol. Cell 12:51-62).
(§3) Primary Culture of Neonatal Rat Ventricular Myocytes. Primary cultures of cardiac ventricular myocytes were prepared from 1-day-old Crl: (WI) BR-Wistar rats according to standard methods (Tomita, et al. (2003) Circ. Res. 93:12-22). Myocytes were cultured under serum-free conditions for 48 hours before experiments. Cell size and total protein content were obtained (Tomita, et al. (2003) supra).
Assays for Apoptosis. Histone-associated DNA fragments were quantitated by the Cell Death Detection ELISA (ROCHE; Yamamoto, et al. (2003) J. Clin. Invest. 111:1463-1474).

Data set [2] has as its system Histones 3 and 4. Briefly: Histone acetylation in treated cardiac myocytes (immunoblot). Format: cell-based, rat. A general note: Immunoblotting shows a protein as a band on a membrane.
Data set [3] relates to neonatal rat cardiac myocytes. Briefly: Cardiac myocyte morphology and death (shrinkage, detachment, cell size). In kind it is cell-based. The method, then:
A 110 kD protein was detected predominantly in the nuclear fraction. To examine the function of Sir2α in cardiac myocytes, nicotinamide (NAM) and sirtinol, inhibitors of Sir2 (Bitterman, et al. (2002) J. Biol. Chem. 277:45099-45107; Grozinger, et al. (2001) J. Biol. Chem. 276:38837-38843) were employed. Myocytes were also treated with trichostatin A (TSA), an inhibitor of class I and II HDACs (Johnstone (2002) Nat. Rev. Drug Discov. 1:287-299).
To examine whether cardiac myocyte apoptosis due to inhibition of Sir2α is mediated by p53, cardiac myocytes were transduced with adenovirus harboring temperature-sensitive dominant-negative p53 and cultured at 39° C. […] The temperature-sensitive dominant-negative p53 construct works as a dominant-negative only at high temperatures (Regula and Kirshenbaum (2001) J. Mol. Cell. Cardiol. 33:1435-1445). Consistent with this, the cell death inhibitory effect of dominant-negative p53 against NAM treatment was not observed at 32° C.
as §2, §3

Data set [4] relates to cardiac myocytes. Briefly: TUNEL staining of cultured cardiac myocytes. In kind it is cell-based, rat. Particulars: for TUNEL positive myocytes: compound alone.
Description: Subsequently, it was determined whether cardiac myocyte death by Sir2α inhibition was due to apoptosis. […] To examine whether activation of caspase-3 was involved in myocyte death induced by NAM and TSA, the effect of DEVD-CHO, a cell permeable inhibitor of caspase-3, upon myocyte death was examined.
Primary Culture of Neonatal Rat Ventricular Myocytes. […] Myocytes were cultured under serum-free conditions for 48 hours before experiments.
The subject of data set [5] is p53. Briefly: Immunoblot of nuclear fractions with anti-acetylated p53 antibodies. Format: cell-based, rat. The note with it: for Acetylation of p53 at K320 / Acetylation of p53 at K373/382: nuclear fractions of treated myocytes; for total amount of p53: treated myocytes.
Excerpt: To examine whether the status of acetylation in p53 is affected by NAM or TSA in cardiac myocytes, nuclear fractions were subjected to immunoblot analysis with anti-acetylated p53 antibodies.
Anti-Sir2α antibody, anti-acetyl-p53 (Lys 320 and Lys 373/382) antibodies and anti-acetyl histone H3 and H4 antibodies were purchased from Upstate. Sirtinol and DEVD-CHO were from CALBIOCHEM, and Trichostatin A (TSA) was from SIGMA.
Data set [6] concerns caspase-3. Briefly: Caspase-3 cleavage in cardiac myocytes. Format: cell-based, rat. The note with it: treated cardiac myocytes. The method, then: as §1
To further confirm that inhibition of endogenous Sir2α stimulates cardiac myocyte apoptosis, the effects of a dominant-negative Sir2α were examined. […] The level of cleaved caspase-3 was higher in dominant-negative Sir2α-transduced myocytes than in LacZ-transduced cells.
Immunoblot Analysis. Nuclear fractions were prepared as described (Tomita, et al. (2003) supra). Whole-cell lysates were obtained using Lysis Buffer A, containing 150 mmol/L NaCl, 50 mmol/L Tris, pH 7.5, 0.1 mmol/L Na3VO4, 1 mmol/L NaF, 0.5 mmol 4-(2-aminoethyl)benzenesulfonyl fluoride hydrochloride, 1% NONIDET P-40, 0.1% sodium dodecyl sulfate, 0.5% deoxycholic acid, 0.5 μg/mL leupeptin, and 0.5 μg/mL aprotinin. For immunoblotting, the antimurine Sir2α antibody (1:10 000) was used.

Data set [7] deals with p53. Briefly: p53-Luc reporter gene assay. Format: cell-based, rat. Particulars: treated myocytes. (In general: In a reporter assay the amount or activity of a reporter protein is the signal.)
Description: Transfection and Luciferase Assays. One million cells were transfected with 4 μg of plasmid. The transcriptional activity of p53 was evaluated using p53-Luc (2 pg) containing 15 copies of specific p53 DNA-binding sequence ([sequence]). A plasmid carrying the β-galactosidase gene (SV40-β-gal; 1 μg) was cotransfected. One microgram of expression plasmids pcDNA3.1, pcDNA3.1-Sir2α, or pcDNA 3.1-DN-Sir2α was employed.
For data set [8], the system named is myocytes. Particulars: treatment with resveratrol; Pillai et al. 2005; cited from earlier work.
Data set [9] concerns mouse hearts. In kind it is in vivo, mice. Also on record: LV contraction (EF, % FS): dose or concentration left out as unconfirmed. The method, then:
Tg-Sirt2α (n=6) and NTg (n=4) mice from line 40 were treated with ip injection of 10 mg/kg of paraquat (PQ) for 2 weeks. LV ejection fraction (EF, FIG. 8A) and % fractional shortening (% FS, FIG. 8B) of Tg-Sirt2α and NTg mice after PQ treatment is shown. […] Immunoblot analyses of catalase were conducted, using cardiac myocytes transduced with adenovirus vectors harboring constitutively actively FOXO1a (F-CA), dominant negative FOXO1a (F-DN), or Sirt2α. n=3-4. Values are presented as means±SE.
To this end, mice were treated for 14 days with paraquat, an inducer of oxidative stress. […] The paraquat-induced increases in oxidative stress were abolished in Tg-Sirt1 line 40 (FIG. 8D). […] Paraquat-induced increases in expression of catalase, an antioxidant, were greater in Tg-Sirt1 than in NTg hearts (FIG. 8E).

Entries after “also recorded” stand apart in the source; their conditions may differ.

Take `CC(/C=C/C(=O)NO)=C\[C@@H](C)C(=O)c1ccc(N(C)C)cc1` [TSA, trichostatin A]: the “mono- and oligo-nucleosomes in the cytoplasm (nuclear fragmentation)” value in data set [1] is reported as “significantly increased nuclear fragmentation; also recorded: not as potent as NAM”. Further, the “acetylation of Histones 3 and 4” value in [2] was “increased acetylation of Histones 3 and 4”. Besides, in [3] (at high doses), the myocyte death result was “caused death in some myocytes at high doses”. Moreover, the cell size entry in data set [3] (treated cardiac myocytes) is “modestly increased cell size”. In addition, the TUNEL positive myocytes result in data set [4] is listed as “modest increase in TUNEL-positive myocytes”. In data set [5], the “Acetylation of p53 at K320” value is recorded as “not”, the “Acetylation of p53 at K373/382” value is given as “not” and the “total amount of p53” value is “Neither NAM nor TSA significantly changed”. Besides, in [6], the “cleavage of caspase-3” value was “did not”. In [7], the “activity of p53-Luc” value is “failed to activate”.
Take `Oc1ccc(C=Cc2cc(O)cc(O)c2)cc1` [resveratrol]: in data set [8], the “myocyte cell death in vitro” value was “prevents myocyte cell death”.
With `C[n+]1ccc(-c2cc[n+](C)cc2)cc1` [Paraquat, paraquat], in data set [9], the “LV contraction (EF, % FS)” value is given as “significantly reduced LV contraction”. Further, the “oxidative stress (8-OHdG staining, MDA content)” value in data set [9] (NTg mouse hearts, ip 10 mg/kg, 14 days) is on record as “significantly increased the extent of oxidative stress”.
With `CC(NC(=O)c1ccccc1/N=C/c1c(O)ccc2ccccc12)c1ccccc1` (stereo not drawn) [sirtinol], the “mono- and oligo-nucleosomes in the cytoplasm (nuclear fragmentation)” value in data set [1] was “significantly increased”. Moreover, the “cleavage of caspase-3” value in [6] was “induced cleavage of caspase-3”.
On to DEVD-CHO, for which the “TUNEL positive myocytes caused by NAM” value in data set [4] (effect of caspase-3 inhibitor on NAM-induced death) is reported as “prevented increases in TUNEL positive myocytes”. Moreover, the “TUNEL-positive myocytes due to TSA” value in [4] (effect of caspase-3 inhibitor on TSA-induced death) was “did not affect”.
Take `NC(=O)c1cccnc1` [NAM, nicotinamide]: the “mono- and oligo-nucleosomes in the cytoplasm (nuclear fragmentation)” value in data set [1] is listed as “significantly increased”. The “acetylation of Histones 3 and 4” value in data set [2] was “increased acetylation of Histones 3 and 4”. Further, the “cell shrinkage and detachment, consistent with apoptosis” value in [3] (treatment for 48 hours) was “dose-dependent increases in cell shrinkage and detachment”. For the same compound, the TUNEL positive myocytes result in [4] was “increases in TUNEL positive myocytes”. Also, in data set [5], the “Acetylation of p53 at K320” value worked out at 2.8 fold, the “Acetylation of p53 at K373/382” value is recorded as 1.8 fold and the “total amount of p53” value is on record as “Neither NAM nor TSA significantly changed”. Moreover, in data set [6], the “cleavage of caspase-3” value is reported as “induced cleavage of caspase-3”. The “activity of p53-Luc” value in [7] was “dose-dependently increased”.
As to `CC(O)C(=O)O` (stereo not drawn) [lactate], the “cytoplasmic accumulation of mono- and oligo-nucleosomes induced by serum starvation” value in data set [1] (10 mM, 48 hours (FIG. 1C)) is “stimulated it”.

Source of the values: US20100021924A1, “Transgenic animal and methods for decreasing cardiac cell death via cardiac-specific sir2alpha overexpression” (priority 2005, published 2010).
